Assay results as given in ChEMBL document CHEMBL3301361, “Experimental in vitro DMPK and physicochemical data on a set of publicly disclosed compounds”.
Converted amounts (≈) assume the structure as drawn.

Legend:
in vitro [1] = conditions: human, hepatocytes
in vitro [2] = conditions: Dunkin Hartley, guinea pig, plasma
in vitro [3] = conditions: SD, HW or BN, rat, plasma
in vitro [4] = conditions: human, plasma
physchem [5] = conditions: octan-1-ol/water
in vitro [6] = conditions: human
in vitro [7] = conditions: hepatocytes
physchem [8] = test: physchem
in vitro [9] = conditions: mouse, plasma
physchem [10] = conditions: pH 7.4 buffer
in vitro [11] = conditions: Beagle, dog, plasma
physchem [12] = test: physchem; remark: listed apart in the source

Row | SMILES | fraction unbound at 5 h (in vitro [2]) | fraction unbound at 5 h (in vitro [3]) | fraction unbound at 5 h (in vitro [4]; PPB) | logD (physchem [5]; pH 7.4, LogD7.4) | microsomal CLint (in vitro [6]; liver microsomes) | hepatocyte CLint (in vitro [7]) | other results
1 | Cc1nn(C2CCCCC2)c(N)c1-c1ccccc1 | 0.105 | 0.101 | 0.0447 | – | – | – | hepatocyte CLint (in vitro [1]): 13.8 µL/min/1e6 cells
2 | C[C@@H](NC(=O)Cc1ccc(C2CC2)cc1)c1ccc(OCC(F)(F)F)cn1 | 0.0006 | 0.0044 | 0.0041 | – | – | – | –
3 | N#Cc1ccc2c(c1)N(CCN1CCC(NCc3ccc4c(n3)NC(=O)CO4)CC1)C(=O)CO2 | 0.591 | – | – | – | – | 8.51 µL/min/1e6 cells | logD (physchem [5]; pH 7.4): 0.23
4 | Cc1cc(CCC[N+]23CCC(CC2)[C@@H](OC(=O)[C@](C)(c2ccccc2)N2CCCCC2)C3)ccn1 | 0.529 | – | – | – | – | 36.1 µL/min/1e6 cells | –
5 | C[C@@](C(=O)O[C@H]1C[N+]2(CCCc3ccc4ncsc4c3)CCC1CC2)(c1ccccc1)N1CCCCC1 | 0.244 | – | – | – | – | 66 µL/min/1e6 cells | –
6 | C[C@@](C(=O)O[C@H]1C[N+]2(CC(=O)Nc3ccccc3)CCC1CC2)(c1ccccc1)N1CCCCC1 | 0.0499 | – | – | – | – | 64 µL/min/1e6 cells | –
7 | C[C@@](C(=O)O[C@H]1C[N+]2(CCc3ccccc3)CCC1CC2)(c1ccccc1)N1CCCCC1 | 0.129 | 0.22 | – | – | – | 76 µL/min/1e6 cells | –
8 | C[C@@](C(=O)O[C@H]1C[N+]2(CCc3ccccc3F)CCC1CC2)(c1ccccc1)N1CCCCC1 | 0.194 | – | – | – | – | 130 µL/min/1e6 cells | –
9 | COc1nc(Br)cnc1NS(=O)(=O)c1ccc(Cl)s1 | – | 0.002 | 0.0013 | 0.99 | – | – | pKa (physchem [8]): 4.1; fraction unbound at 5 h (in vitro [9]): 0.0191; solubility thermodynamic (physchem [10]): 891 µM (≈ 343 µg/mL); fraction unbound at 5 h (in vitro [11]): 0.0124
10 | CNC(=O)CCCN(C)C(=O)c1ccc2c(c1)c1c(n2C)CC[C@@H](C2CCOCC2)C1 | 0.329 | 0.0146 | – | – | – | – | fraction unbound at 5 h (in vitro [4]): 0.0366; fraction unbound at 5 h (in vitro [11]): 0.258
11 | COc1cnc(-c2ccccc2C(F)(F)CNC(=O)c2ccc(COCC(F)(F)F)nc2)cn1 | 0.0544 | 0.0532 | 0.0069 | – | – | – | solubility thermodynamic (physchem [10]): 85.1 µM (≈ 41.1 µg/mL)
12 | O=C(c1c[nH]c(=O)c2ccccc12)N1CCC(N2CCC(Oc3ccc(Cl)c(Cl)c3)CC2)CC1 | 0.17 | – | 0.089 | 3.51 | – | – | fraction unbound at 5 h (in vitro [11]): 0.0488
13 | CCCN(c1cccc(S(C)(=O)=O)c1)P(=O)(c1ccccc1)c1ccccc1 | 0.289 | 0.186 | – | – | – | – | fraction unbound at 5 h (in vitro [4]): 0.0321
14 | COCCN(c1cccnc1)P(=O)(c1ccccc1)c1ccccc1 | 0.58 | 0.376 | – | – | – | – | fraction unbound at 5 h (in vitro [4]): 0.0872
15 | CCCN(c1cncnc1)P(=O)(c1ccccc1)c1ccccc1 | 0.529 | – | – | – | – | – | –
16 | O=C(CC1CCN(Cc2ccn(-c3ccc(C(F)(F)F)cn3)c2)CC1)NC(c1ccc(F)cc1)c1ccc(F)cc1 | 0.013 | 0.0033 | 0.0053 | – | – | – | fraction unbound at 5 h (in vitro [11]): 0.004
17 | CC(C)(C)NCC(O)c1ccc(O)c(CO)c1 (stereo unspecified) [ALBUTEROL] | 0.855 | 0.656 | 0.772 | – | – | – | –
18 | CN(C)c1nc(Cc2ccc(NC(=O)c3ccc(C(F)(F)F)cc3)cc2)nc(N(C)C)c1CC(=O)O [BI-671800] | 0.0437 | 0.0025 | 0.0039 | 1.46 | < 3 µL/min/mg | 18.6 µL/min/1e6 cells | hepatocyte CLint (in vitro [1]): 4.47 µL/min/1e6 cells; solubility thermodynamic (physchem [10]): 28.8 µM (≈ 14.4 µg/mL)
19 | O=C(NCC1CCCCN1)c1cc(OCC(F)(F)F)ccc1OCC(F)(F)F (stereo unspecified) [FLECAINIDE] | 0.574 | 0.535 | 0.619 | 1.13 | – | – | –
20 | COc1ccc(Cl)cc1C(=O)NCCc1ccc(S(=O)(=O)NC(=O)NC2CCCCC2)cc1 [GLYBURIDE] | – | 0.0012 | 0.0012 | 2.23 | 22 µL/min/mg | – | hepatocyte CLint (in vitro [1]): 14.4 µL/min/1e6 cells; pKa (physchem [8]): 3.76; fraction unbound at 5 h (in vitro [9]): 0.0027; solubility thermodynamic (physchem [10]): 10.5 µM (≈ 5.19 µg/mL)
21 | Cc1nccn1CC1CCc2c(c3ccccc3n2C)C1=O (stereo unspecified) [ONDANSETRON] | 0.635 | – | – | 1.67 | 6.46 µL/min/mg | – | pKa (physchem [12]): 7.73; hepatocyte CLint (in vitro [1]): < 3 µL/min/1e6 cells
22 | C[N+]1(C)[C@@H]2C[C@@H](OC(=O)C(O)(c3cccs3)c3cccs3)C[C@H]1[C@@H]1O[C@@H]12 [TIOTROPIUM] | 0.613 | – | – | – | – | – | logD (physchem [5]; pH 7.4): -0.25; fraction unbound at 5 h (in vitro [11]): 0.807

Second part, led by results:

Row | fraction unbound at 5 h (in vitro [2]) | fraction unbound at 5 h (in vitro [3]) | fraction unbound at 5 h (in vitro [4]; PPB) | logD (physchem [5]; pH 7.4, LogD7.4) | microsomal CLint (in vitro [6]; liver microsomes) | hepatocyte CLint (in vitro [7]) | SMILES | other results
23 | 0.103 | – | 0.0544 | 1.92 | 82 µL/min/mg | 135 µL/min/1e6 cells | CCN(CCNCCc1ccc(O)c2[nH]c(=O)sc12)C(=O)CCOCCc1ccccc1 | –
24 | 0.11 | – | 0.0606 | – | > 150 µL/min/mg | 107 µL/min/1e6 cells | CCCN(CCNCCc1ccc(O)c2[nH]c(=O)sc12)C(=O)CCOCCc1ccccc1 | –
25 | 0.0752 | – | 0.028 | 2.33 | – | 99 µL/min/1e6 cells | CC(C)N(CCNCCc1ccc(O)c2[nH]c(=O)sc12)C(=O)CCOCCc1ccccc1 | microsomal CLint (in vitro [6]; microsomes): 60 µL/min/mg
26 | 0.17 | 0.0705 | 0.0532 | 3 | 141 µL/min/mg | > 150 µL/min/1e6 cells | CCCCN(CCNCCc1ccc(O)c2[nH]c(=O)sc12)C(=O)CCOCCc1ccccc1 | hepatocyte CLint (in vitro [1]): 25.9 µL/min/1e6 cells
27 | 0.0088 | 0.0082 | 0.0067 | 3.12 | 70 µL/min/mg | 85 µL/min/1e6 cells | O=c1[nH]c2c(O)ccc([C@@H](O)CNCCCSCCOCCc3cccc4ccccc34)c2s1 | hepatocyte CLint (in vitro [1]): 14.8 µL/min/1e6 cells
28 | 0.186 | – | – | -0.03 | < 3 µL/min/mg | < 3 µL/min/1e6 cells | O=c1[nH]c2c(O)ccc([C@@H](O)CNCCCOCCNCCc3cccc(Cl)c3)c2s1 | –
29 | 0.107 | 0.134 | – | 1.06 | 17 µL/min/mg | 22 µL/min/1e6 cells | O=c1[nH]c2c(O)ccc([C@@H](O)CNCCc3cccc(CNCCc4ccccc4F)c3)c2s1 | hepatocyte CLint (in vitro [1]): < 3 µL/min/1e6 cells
30 | 0.276 | 0.0836 | – | 0.82 | – | – | COc1ccccc1CCNCc1cccc(CCNC[C@H](O)c2ccc(O)c3[nH]c(=O)sc23)c1 | –
31 | 0.0447 | 0.0606 | 0.0447 | – | 25 µL/min/mg | 29 µL/min/1e6 cells | COc1ccccc1CCNCc1ccc(CCNC[C@H](O)c2ccc(O)c3[nH]c(=O)sc23)cc1 | –
32 | 0.216 | 0.154 | 0.137 | 0.91 | 35 µL/min/mg | – | COc1cccc(CNCc2cccc(CCNC[C@H](O)c3ccc(O)c4[nH]c(=O)sc34)c2)c1 | –
33 | 0.035 | 0.0082 | 0.0133 | 2.09 | 50 µL/min/mg | 25 µL/min/1e6 cells | COc1cccc2c1c(NS(=O)(=O)c1ccc(Cl)s1)nn2Cc1cccc(CNC(=O)C(C)(C)O)c1 | hepatocyte CLint (in vitro [1]): 40 µL/min/1e6 cells; solubility thermodynamic (physchem [10]): 81.3 µM (≈ 44.6 µg/mL)
34 | 0.11 | 0.0752 | 0.0374 | – | – | – | O=C(N[C@@H]1COc2cccc(-c3ccc(CO)nc3)c2C1)c1ccc(OCC(F)(F)F)nc1 | fraction unbound at 5 h (in vitro [11]): 0.0477
35 | 0.173 | 0.0801 | 0.0313 | 2.23 | – | 22 µL/min/1e6 cells | O=C1COc2c(CCNCCN(C(=O)CCNCCc3ccc(Cl)c(Cl)c3)C3CCCCC3)ccc(O)c2N1 | microsomal CLint (in vitro [6]; microsomes): 38 µL/min/mg
36 | 0.19 | 0.173 | – | – | – | – | CCCNC(c1cccnc1)P(=O)(c1ccccc1)c1ccccc1 (stereo unspecified) | fraction unbound at 5 h (in vitro [11]): 0.197
37 | 0.276 | 0.208 | 0.107 | – | 35 µL/min/mg | 140 µL/min/1e6 cells | CN(CCNCCc1ccc(O)c2[nH]c(=O)sc12)C(=O)CCOCCc1ccccc1 | –
38 | – | 0.0077 | – | 1.27 | 7 µL/min/mg | – | Cc1ccc2c(c1)c(-c1ccnc3c(Cl)cccc13)c(C)n2CC(=O)O | pKa (physchem [12]): 4.4; pKa (physchem [8]): 2.9; fraction unbound at 5 h (in vitro [9]): 0.0229; solubility thermodynamic (physchem [10]): 1320 µM (≈ 481 µg/mL); fraction unbound at 5 h (in vitro [11]): 0.0041
39 | 0.208 | 0.134 | – | 2.4 | 129 µL/min/mg | 43 µL/min/1e6 cells | C[C@H](Cc1cccc(CC(=O)NC23CC4CC(CC(C4)C2)C3)c1)NC[C@H](O)c1ccc(O)c(CO)c1 | hepatocyte CLint (in vitro [1]): 21.9 µL/min/1e6 cells
40 | 0.0437 | 0.0532 | – | – | – | – | Cc1ccc2c(OCCN3CCC(Cc4cccc(NS(C)(=O)=O)c4)CC3)cccc2n1 | –
41 | 0.299 | 0.314 | 0.249 | – | – | – | N=C(NCCCCc1ccc(OCC(O)CO)cc1)NC(=O)c1nc(Cl)c(N)nc1N (stereo unspecified) [552-02 FREE BASE] | –
42 | 0.0139 | 0.002 | 0.001 | – | – | – | CC(=O)Nc1nc2c(Oc3cc(-c4ccc(C(F)(F)F)cc4)ncn3)cccc2s1 [AMG-517] | –
43 | 0.194 | – | 0.285 | 0.02 | – | – | O=CNc1cc([C@@H](O)CNCCc2ccc(NC[C@H](O)c3ccccc3)cc2)ccc1O [MILVETEROL] | hepatocyte CLint (in vitro [1]): < 3 µL/min/1e6 cells
44 | 0.101 | 0.0784 | 0.0556 | 2.61 | – | 91 µL/min/1e6 cells | O=c1[nH]c2c(O)ccc(CCNCCS(=O)(=O)CCCOCCc3ccccc3)c2s1 [SIBENADET] | microsomal CLint (in vitro [6]; microsomes): 111 µL/min/mg
